PubChem BioAssay (NCI)
Values joined by “and” are separate entries in the source; they are usually repeats but may differ in a detail not shown here. Identical values can stand only once.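 Compound exposure: 48 hours, 5 concentrations, 96-well plates. At the GI50, growth is halved. Definition used: TGI = concentration required for complete inhibition of growth.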 Where a SMILES comes first, the peptide text is derived from it. [ ]: non-standard residue; d: D form. The star is where a group is joined. ξ: configuration not given here. NMeN = CN[C@@H](CC(N)=O)C(=O)O; NMeV = CN[C@H](C(=O)O)C(C)C; ξNMeV = CNC(C(=O)O)C(C)C; Boc = CC(C)(C)OC(=O)*; ξNMeA = CNC(C)C(=O)O

Legend:
Assay in all cases: NCI anticancer screen, dose series, 48 h
[1] = system: U251 CNS
[2] = system: SNB-75 CNS
[3] = system: SF-268 CNS
[4] = system: SN12C renal
[5] = system: K-562 leukemia
[6] = system: NCI-H522 lung
[7] = system: NCI-H226 lung
[8] = system: SK-MEL-2 melanoma
[9] = system: SNB-19 CNS
[10] = system: UO-31 renal

| SMILES | TGI [1] [µM] | TGI [2] [µM] | TGI [3] [µM] | TGI [4] [µM] | TGI [5] | TGI [6] [µM] | TGI [7] [µM] | TGI [8] [µM] | TGI [9] [µM] | TGI [10] | GI50 [1] [µM] | GI50 [4] [µM] | GI50 [5] [µM] | GI50 [7] [µM] | GI50 [8] [µM] | GI50 [9] [µM] | GI50 [10] [µM] | GI50 [2] [µM] | GI50 [3] [µM] | GI50 [6] [µM] |
| --- | --- | --- | --- | --- | --- | --- | --- | --- | --- | --- | --- | --- | --- | --- | --- | --- | --- | --- | --- | --- |
| c1ccc2c(c1)-c1ccccc1C2N1CC2CCC(CC2)C1 | 30.9 | 61.4 | 37.8 | 55.6 | 36.6 µM | 28.5 | 41.5 | 30.7 | 92.4 | 94.6 µM | – | – | – | – | – | – | – | – | – | – |
| COC(=O)C(C)N(C)C(=O)[C@H](CC(N)=O)N(C)C(=O)[C@@H]1CCCN1C(=O)[C@H](C(C)C)N(C)C(=O)C(C(C)C)N(C)C(=O)[C@@H](NC(=O)OC(C)(C)C)C(C)C (some centres not stated) (Boc-V[ξNMeV][NMeV]P[NMeN][ξNMeA]-OMe) | > 100 | > 100 | > 100 | > 100 | 50 µM and > 100 µM | > 50 | > 100 | > 100 | > 100 | 50 µM and > 100 µM | > 100 | > 100 | > 100 | > 100 | > 100 | > 100 | > 100 | – | – | – |
| CCC[CH2][Sn]([CH2]CCC)([O]C(=O)C(N)CSC)[O]C(=O)C(N)CSC (configuration not stated) | 25.1 | 31.6 | 11.3 | 23.4 | 7.81 µM | 3.39 | 34.9 | 8.79 | 24.6 | 27.4 µM | 11.3 | 8.82 | 0.846 | 20.5 | 2.78 | 12.1 | 14.3 | 10 | 4.06 | 1.34 |
| O=c1ccnc2c1ccc1[nH]cccc12 | > 100 | > 100 | > 100 | > 100 | > 100 µM | > 100 | > 100 | > 100 | > 100 | > 100 µM | – | – | – | – | – | – | – | – | – | – |
| CCOc1ccc(Nc2nc(-c3ccc4c(c3)NC(=O)CO4)cs2)cc1 | > 100 | > 100 | > 100 | > 100 | > 100 µM | 37.1 | > 100 | 13.8 | > 100 | > 100 µM | 10.7 | 49.4 | 4.86 | 10 | 3.98 | 18.9 | 5.47 | 18 | 36.7 | 4.27 |
| O=S(=O)(c1ccc(N=C2NN=C(c3c[nH]c4ccccc34)CS2)cc1)N1CCOCC1 | > 100 | > 100 | > 100 | > 100 | > 100 µM | > 100 | > 100 | > 100 | > 100 | > 100 µM | 8.48 | 79.4 | 2.65 | 7.74 | 6.22 | 45.6 | 19.1 | 21.6 | 73.7 | > 100 |
| Cc1occc1C(=S)Nc1ccc(Cl)c(/C=N/OC(C)C)c1 | > 53.7 | 72.7 | > 62.2 | 35.1 | > 100 µM | 28.5 | 37.6 | 43.8 | > 67.4 | 42.8 µM | – | – | – | – | – | – | – | – | – | – |
